In patent publication US20020048572A1, “Treatment of hypertriglyceridemia and other conditions using LXR modulators” (priority 2000, published 2002):

Key:
Gal4-LXRα = Gal4-LXRα (Homo sapiens, UniProt Q13133); assay: HEK293 Gal4-nuclear receptor chimera luciferase reporter assay; assay type: cell-based; details: T0901317 1 μM, T0314407 5 μM, 20 h
Description: (§1) FIG. 7. (A) Dose responses to LXR ligands in an HEK293 transient transfection assay using a wild-type LXRα expression plasmid and a luciferase reporter gene containing two copies of an LXR response element. DMSO treatments were used to derive the basal level of activation. […] HEK293 cells were cotransfected with a luciferase reporter gene containing four copies of the Gal4 DNA-binding site and the various chimeric Gal4 (DNA-binding domain)-nuclear receptor (ligand-binding domain) proteins shown.
(§2) HEK293 cells were cotransfected with a luciferase reporter gene and the various Gal4-nuclear receptor chimeric constructs shown and a β-galactosidase (β-gal) expression vector for normalization. Transfected cells were treated with the indicated compounds for 20 h before being harvested. Transfection data and luciferase results are normalized to β-gal and expressed as the fold-induction relative to DMSO controls.
(§3) PXR, a nuclear receptor involved in the CYP3A-mediated metabolism of a diverse collection of xenobiotics, is known to be activated by a large number of synthetic compounds (Jones et al., Mol. Endocrinol. 14:27-39 (2000)).

Gal4-LXRβ = Gal4-LXRβ (Homo sapiens, UniProt P55055); assay: as above; assay type: cell-based; details: T0901317 1 μM, T0314407 5 μM, 20 h
Chain of Gal4-LXRβ (P55055 222-460 limits assumed): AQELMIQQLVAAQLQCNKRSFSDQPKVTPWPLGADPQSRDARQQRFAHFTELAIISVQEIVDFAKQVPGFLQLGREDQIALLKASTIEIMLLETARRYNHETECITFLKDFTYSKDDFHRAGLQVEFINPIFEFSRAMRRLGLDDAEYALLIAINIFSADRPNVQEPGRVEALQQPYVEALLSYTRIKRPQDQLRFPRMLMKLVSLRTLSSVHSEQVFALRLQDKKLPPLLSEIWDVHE
Chain of Gal4-LXRβ (P04386 1-147 partner limits assumed): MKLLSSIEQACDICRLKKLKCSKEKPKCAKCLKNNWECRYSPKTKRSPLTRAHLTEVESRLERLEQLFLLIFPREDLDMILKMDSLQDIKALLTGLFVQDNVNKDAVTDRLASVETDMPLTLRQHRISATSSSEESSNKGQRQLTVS
Description: as §1, §2, §3

wild-type mice = assay: Plasma and hepatic lipid analysis in wild-type mice; assay type: in vivo, mouse; details: 7 d
Method: FIG. 10. Agonist T0901317-mediated increases in hepatic and plasma triglyceride levels and lipogenic mRNA requires LXRs. Analysis of the lipid content of livers and plasma from vehicle- and T0901317-created wild-type and LXRα/β-/- mice (n=5 for each of the four groups shown, treatment for 7 d). Pooled plasma (50 μL from each of five mice per group) was fractionated and lipids analyzed as described. Shown are the concentrations for (A) FPLC triglyceride, (B) FPLC phospholipid, and (C) hepatic triglyceride. (D) Northern blot analysis of hepatic SREEP-I, SREBP-2, SCD-1, FAS, and ACC mRNA levels.
C57BL/6 mice (Charles River Laboratories) were between 6 and 10 wk old and weighed ˜20-30 g at the initiation of treatment. Golden Syrian Hamsters (Harlan Sprague-Dawley) were between 12 and 16 wk old (80-150 g). Animals were fed regular chow diets containing ˜4% fat and 0.02% cholesterol (PMI Pi-colab 5053 Chow). LXRα and β−/− mice were reared at the University of Texas Southwestern (UTSW) Medical Center at Dallas in accordance with the Institutional Animal Care and Research Advisory Committee at the UTSW Medical Center. Mice at UTSW were maintained on a 12 h light/12 h dark cycle and fed ad libitum a cereal-based mouse chow diet (No. 7001, Harlan Teklad).
Plasma was prepared from euthanized mice using standard centrifugation techniques and analyzed for plasma total cholesterol, HDL cholesterol, and triglyceride concentrations using a Hitachi 704 Clinical Analyzer. FPLC of plasma lipoproteins was accomplished using 200 μL aliquots of pooled plasma (from three to five animals) and fractionated on Superose 6 columns (Pharmacia). Cholesterol, triglyceride, and phospholipid concentrations in the fractions were determined enzymatically with reagents from Boehringer, Sigma, and Wako, respectively. Hepatic lipids were extracted and analyzed for triglyceride essentially as described (Bucolo, G. and David, H., Clin. Chem. 19:476-482 (1973); Yokode et al., Science 250:1273-1275 (1990)).

LXRα/β−/− mice = assay: Plasma and hepatic lipid analysis in LXRα/β−/− mice; assay type: in vivo, mouse
Method: FIG. 10. […] Pooled plasma (50 μL from each of five mice per group) was fractionated and lipids analyzed as described. Shown are the concentrations for (A) FPLC triglyceride, (B) FPLC phospholipid, and (C) hepatic triglyceride. (D) Northern blot analysis of hepatic SREEP-I, SREBP-2, SCD-1, FAS, and ACC mRNA levels.
C57BL/6 mice (Charles River Laboratories) were between 6 and 10 wk old and weighed ˜20-30 g at the initiation of treatment. Golden Syrian Hamsters (Harlan Sprague-Dawley) were between 12 and 16 wk old (80-150 g). […] LXRα and β−/− mice were reared at the University of Texas Southwestern (UTSW) Medical Center at Dallas in accordance with the Institutional Animal Care and Research Advisory Committee at the UTSW Medical Center.
FPLC of plasma lipoproteins was accomplished using 200 μL aliquots of pooled plasma (from three to five animals) and fractionated on Superose 6 columns (Pharmacia). Cholesterol, triglyceride, and phospholipid concentrations in the fractions were determined enzymatically with reagents from Boehringer, Sigma, and Wako, respectively.

LXRα = molecular target: T1, LXRα (Homo sapiens, UniProt Q13133); details: fold relative to DMSO
T1 sequence (Q13133 1-447): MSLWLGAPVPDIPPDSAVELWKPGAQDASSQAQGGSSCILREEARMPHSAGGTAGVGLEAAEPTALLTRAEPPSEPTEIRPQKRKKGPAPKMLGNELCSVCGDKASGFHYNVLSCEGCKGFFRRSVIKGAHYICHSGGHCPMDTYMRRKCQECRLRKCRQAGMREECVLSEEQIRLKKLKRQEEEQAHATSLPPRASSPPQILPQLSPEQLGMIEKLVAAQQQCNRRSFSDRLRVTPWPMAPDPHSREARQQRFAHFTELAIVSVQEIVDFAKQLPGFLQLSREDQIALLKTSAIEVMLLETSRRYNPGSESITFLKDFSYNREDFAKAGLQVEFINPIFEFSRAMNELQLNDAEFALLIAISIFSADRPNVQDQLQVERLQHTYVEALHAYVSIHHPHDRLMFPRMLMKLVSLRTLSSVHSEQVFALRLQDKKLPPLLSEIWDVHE

Chain of Gal4-LXRα (P04386 1-147 partner limits assumed, one chain of several): as the sequence (P04386 1-147 partner limits assumed) above

O=S(=O)(c1ccccc1)N(CC(F)(F)F)c1ccc(C(O)(C(F)(F)F)C(F)(F)F)cc1 [T0901317, N-(2,2,2-trifluoro-ethyl)-N-[4-(2,2,2-trifluoro-1-hydroxy-1-trifluoromethyl-ethyl)-phenyl]-benzenesulfonamide]
transcriptional activation of Gal4-LXRα (Gal4-LXRα): highest activity | transactivation of chimeric Gal4-LXRβ (Gal4-LXRβ): transactivation was also noted | plasma VLDL-triglyceride (FPLC) (wild-type mice; wild type mice, fold increase): threefold | total plasma triglycerides (wild-type mice; wild-type mice): 225.7 ± 7 mg/dL | hepatic triglyceride (wild-type mice; wild-type mice, fold vs vehicle-treated controls): fivefold | total plasma triglyceride (LXRα/β−/− mice; LXRα/β−/− mice vs vehicle-treated LXRα/β−/−): scant increases | hepatic triglyceride levels (LXRα/β−/− mice; LXRα/β−/− mice, 7 d): no significant elevation | plasma VLDL-triglyceride (LXRα/β−/− mice; LXRα/β−/− mice, 7 d): relatively minute increase | induction of transcriptional activity of LXRα (LXRα): eightfold
